Test results reported in patent US20090131354A1, “miR-126 REGULATED GENES AND PATHWAYS AS TARGETS FOR THERAPEUTIC INTERVENTION” (priority 2007, published 2009).

Columns and labels:
H1650 lung cancer cells = experiment: Alamar Blue proliferation assay, H1650; format: cell-based, human
Excerpt: (§1) The inventors assessed the therapeutic effect of hsa-miR-126 for lung cancer by using 11 individual lung cancer cell lines. To measure cellular proliferation of lung cancer cells, the following non-small cell lung cancer (NSCLC) cells were used: cells derived from lung adenocarcinoma (A549, H1299, H522, H838, Calu-3, HCC827, HCC2935), cells derived from lung squamous cell carcinoma (H520, H226), cells derived from lung bronchioalveolar carcinoma (H1650), and cells derived from lung large cell carcinoma (H460). Synthetic hsa-miR-126 (Pre-miR™-hsa-miR-126, Ambion cat. no. AM17100) or negative control (NC) miRNA (Pre-miR™ microRNA Precursor Molecule-Negative Control #2; Ambion cat. no. AM17111) was delivered via lipid-based transfection into A549, H1299, H522, H838, Calu-3, HCC827, HCC2935, H520, H1650, and H460 cells, and via electroporation into H226 cells.
Lipid-based reverse transfections were carried out in triplicate according to a published protocol (Ovcharenko et al., 2005) and the following parameters: Cells (5,000-12,000 per 96 well), 0.1-0.2 μl Lipofectamine™ 2000 (cat. no. 11668-019, Invitrogen Corp., Carlsbad, Calif., USA) in 20 μl OptiMEM (Invitrogen), 30 nM final concentration of miRNA in 100 μl. Electroporation of H226 cells was carried out using the BioRad Gene Pulser Xcell™ instrument (BioRad Laboratories Inc., Hercules, Calif., USA) with the following settings: 5×10^6 cells with 5 μg miRNA in 200 μl OptiMEM (1.6 μM miRNA), square wave pulse at 250 V for 5 ms. Electroporated H226 cells were seeded at 7,000 cells per 96-well in a total volume of 100 μl. All cells except for Calu-3 cells were harvested 72 hours post transfection or electroporation for assessment of cellular proliferation. Calu-3 cells were harvested 10 days post transfection. Proliferation assays were performed using Alamar Blue (Invitrogen) following the manufacturer's instructions. As a control for inhibition of cellular proliferation, siRNA against the motor protein kinesin 11, also known as Eg5, was used. […]

A549 cells = experiment: Ingenuity Pathways Analysis of affected cellular pathways; design: species or system human
Experimental: The mis-regulation of gene expression by hsa-miR-126 (Table 1) affects many cellular pathways that represent potential therapeutic targets for the control of cancer and other diseases and disorders. The inventors determined the identity and nature of the cellular genetic pathways affected by the regulatory cascade induced by hsa-miR-126 expression. Cellular pathway analyses were performed using Ingenuity Pathways Analysis (Version 4.0, Ingenuity® Systems, Redwood City, Calif.). Alteration of a given pathway was determined by Fisher's Exact test (Fisher, 1922).

[1] = system: human H460 lung cancer xenografts; experiment: H460 lung cancer xenograft, cells electroporated before implantation; format: in vivo, NOD/SCID mice; conditions: H460, day 7
Experimental: The inventors assessed the growth-inhibitory activity of hsa-miR-126 in human lung cancer xenografts grown in immunodeficient mice. Hsa-miR-126 was delivered into A549 and H460 lung cancer cells via electroporation using the Gene Pulser Xcell™ (BioRad) with the following settings: 15×10^6 cells with 5 μg miRNA in 200 μl OptiMEM, square wave pulse at 150 V for 10 ms. Electroporated cells (5×10^6) were mixed with BD Matrigel™, (BD Biosciences; San Jose, Calif., USA; cat. no. 356237) in a 1:1 ratio and injected subcutaneously into the flank of NOD/SCID mice (Charles River Laboratories, Inc.; Wilmington, Mass., USA). As a negative control, A549 and H460 cells were electroporated with negative control (NC) miRNA (Pre-miR™ microRNA Precursor Molecule-Negative Control #2; Ambion cat. no. AM17111) as described above. To assess the anti-oncogenic activity of hsa-miR-126, six animals were injected with A459 cells and six animals were injected with H460 cells. NC miRNA-treated cells were injected into the opposite flank of the same animal to control for animal-to-animal variability. Once tumors reached a measurable size (A549 at 7 days post injection; H460 at 5 days post injection), the length and width of tumors were determined every day for up to 11 days. Tumor volumes were calculated using the formula, Volume=length X width X width/2, in which the length is greater than the width. […]

[2] = system: human leukemia cells (Jurkat) and normal human T cells; conditions: cited from earlier work
[3] = system: lung cancer cells A549, H1299, H522, H838, Calu-3, HCC827, HCC2935, H520, H1650, H460, H226; experiment: Alamar Blue proliferation assay, all lung cancer cell lines tested; format: cell-based, human; conditions: 30 nM
Excerpt: as §1
Lipid-based reverse transfections were carried out in triplicate according to a published protocol (Ovcharenko et al., 2005) and the following parameters: Cells (5,000-12,000 per 96 well), 0.1-0.2 μl Lipofectamine™ 2000 (cat. no. 11668-019, Invitrogen Corp., Carlsbad, Calif., USA) in 20 μl OptiMEM (Invitrogen), 30 nM final concentration of miRNA in 100 μl. […]

In the case of `COc1cc([C@@H]2c3cc4c(cc3[C@@H](O[C@@H]3O[C@@H]5CO[C@@H](C)O[C@H]5[C@H](O)[C@H]3O)[C@H]3COC(=O)[C@H]23)OCO4)cc(OC)c1O` [etoposide], the “% proliferation” value (H1650 lung cancer cells; H1650, 10 μM, relative to NC miRNA (100%)) is reported as 90.98% and the “% proliferation” value (H1650 lung cancer cells; H1650, relative to NC miRNA (100%)) is reported as 60.31%.

With “hsa-miR-126 (UCGUACCGUGAGUAAUAAUGC; synthetic pre-miR form, further chemistry not given here) [Synthetic hsa-miR-126 (Pre-miR™-hsa-miR-126, Ambion cat. no. AM17100)]” the “Number of Genes” value (A549 cells; pathway: Cancer, Cellular Movement, Tumor Morphology) was 23, the “Number of Genes” value (A549 cells; pathway: Carbohydrate Metabolism, Connective Tissue Disorders, Inflammatory Disease) was 15 and the “Number of Genes” value (A549 cells; pathway: Cell Cycle, Connective Tissue Development and Function, Immune Response) was 1. The “Number of Genes” value (A549 cells; pathway: Cell Cycle, Lipid Metabolism, Molecular Transport) was 15, the “Number of Genes” value (A549 cells; pathway: Cell Death, Cell-To-Cell Signaling and Interaction, Cellular Assembly and Organization) was 1 and the “Number of Genes” value (A549 cells; pathway: Cell Morphology, Cellular Assembly and Organization, Cellular Development) was 15. For the same molecule, the “Number of Genes” value (A549 cells; pathway: Cell Signaling, Molecular Transport, Neurological Disease) was 1, the “Number of Genes” value (A549 cells; pathway: Cell-To-Cell Signaling and Interaction, Immune Response, Immune and Lymphatic System Development and Function) was 13 and the “Number of Genes” value (A549 cells; pathway: Cellular Assembly and Organization, Cancer, Skeletal and Muscular Disorders) was 16. The “Number of Genes” value (A549 cells; pathway: Cellular Function and Maintenance, Cellular Assembly and Organization, Cell Cycle) was 11, the “Number of Genes” value (A549 cells; pathway: Cellular Growth and Proliferation, Skeletal and Muscular System Development and Function, Cancer) was 16 and the “Number of Genes” value (A549 cells; pathway: Cellular Movement, Cellular Assembly and Organization, Drug Metabolism) was 16. The “Number of Genes” value (A549 cells; pathway: Developmental Disorder, Endocrine System Disorders, Lipid Metabolism) was 1, the “Number of Genes” value (A549 cells; pathway: Immune Response, Cellular Assembly and Organization, Gene Expression) was 1 and the “Number of Genes” value (A549 cells; pathway: Molecular Transport, Protein Trafficking, Cell-To-Cell Signaling and Interaction) was 1. For the same molecule, the “tumor size relative to control tumors” value [1] was “smaller in size”, the “% proliferation” value (H1650 lung cancer cells; H1650, 30 nM, 72 h, relative to NC miRNA (100%)) was 80.67% and the effect on proliferation [2] was “increasing the proliferation”. The “average inhibition of cellular proliferation” value ([3]; average of 11 lung cancer cell lines) was 25.33% and the “growth-inhibitory activity compared with etoposide” value ([3]; lung cancer cell lines) was “comparable to that of etoposide at concentrations >10 μM”.
